From PubChem BioAssay AID2060507 (Molecular Pharmacology Branch, DTP, NCI, 2025)

Tested on: 519858-162-T-J1-PDC complex spheroid viability
Assay: Anticancer human tumor 519858-162-T-J1-PDC patient-derived colon adenocarcinoma cell line growth inhibition [GQUAD]
Conditions: for IC50: curve of first compound; for viability, T/C: stronger effect = lower value
Procedure, shortened: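 Multi-cell-type spheroids of tumor cells with HUVEC and mesenchymal stem cells, treated with drug combinations. Concentrations descend in half-log steps from near clinical Cmax, or from 10 microM where Cmax is unknown; viability read-out.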

[1] = second compound 0.0316 µM, first compound 0.0316 µM
[2] = second compound 0.0316 µM, first compound 0.1 µM
[3] = second compound 0.0316 µM, first compound 0.316 µM
[4] = second compound 0.0316 µM, first compound 1 µM
[5] = second compound 0.0316 µM, first compound 3.16 µM
[6] = second compound 0.0316 µM, first compound 10 µM
[7] = second compound 0.1 µM, first compound 0.0316 µM
[8] = second compound 0.1 µM, first compound 0.1 µM
[9] = second compound 0.1 µM, first compound 0.316 µM
[10] = second compound 0.1 µM, first compound 1 µM
[11] = second compound 0.1 µM, first compound 3.16 µM
[12] = second compound 0.1 µM, first compound 10 µM
[13] = second compound 0.316 µM, first compound 0.0316 µM
[14] = second compound 0.316 µM, first compound 0.1 µM
[15] = second compound 0.316 µM, first compound 0.316 µM
[16] = second compound 0.316 µM, first compound 1 µM
[17] = second compound 0.316 µM, first compound 3.16 µM
[18] = second compound 0.316 µM, first compound 10 µM
[19] = second compound 1 µM, first compound 0.0316 µM
[20] = second compound 1 µM, first compound 0.1 µM
[21] = second compound 1 µM, first compound 0.316 µM
[22] = second compound 1 µM, first compound 1 µM
[23] = second compound 1 µM, first compound 3.16 µM
[24] = second compound 1 µM, first compound 10 µM
[25] = second compound 3.16 µM, first compound 0.0316 µM
[26] = second compound 3.16 µM, first compound 0.1 µM
[27] = second compound 3.16 µM, first compound 0.316 µM
[28] = second compound 3.16 µM, first compound 1 µM
[29] = second compound 3.16 µM, first compound 3.16 µM
[30] = second compound 3.16 µM, first compound 10 µM
[31] = second compound 10 µM, first compound 0.0316 µM
[32] = second compound 10 µM, first compound 0.1 µM
[33] = second compound 10 µM, first compound 0.316 µM
[34] = second compound 10 µM, first compound 1 µM
[35] = second compound 10 µM, first compound 3.16 µM
[36] = second compound 10 µM, first compound 10 µM
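Further: spheroids exposed to compounds for 7 days.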
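Wherever viability, T/C is given: 100% = DMSO vehicle control viability.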

**Q.** What does the source list for COc1ncnc(C2CC2)c1-c1ncc2cnn(Cc3ccc(-c4nc(C(F)(F)F)cn4C(C)C)cc3)c2n1 + Cc1cnc(CNC(=O)c2c(=O)c3ccc(N4CCCN(C)CC4)nc3n3c2sc2ccccc23)cn1?
**A.** IC50 (second compound 0.0316 µM): > 10 µM; IC50 (second compound 0.1 µM): > 10 µM; IC50 (second compound 0.316 µM): 8.6 µM; IC50 (second compound 1 µM): 0.809 µM; IC50 (second compound 3.16 µM): < 0.0316 µM; IC50 (second compound 10 µM): < 0.0316 µM; viability, T/C [1]: 87.7%; viability, T/C [2]: 65.6%; viability, T/C [3]: 88.7%; viability, T/C [4]: 79.3%; viability, T/C [5]: 90.6%; viability, T/C [6]: 67.6%; viability, T/C [7]: 85.6%; viability, T/C [8]: 74.8%; viability, T/C [9]: 97.7%; viability, T/C [10]: 77.9%; viability, T/C [11]: 97.2%; viability, T/C [12]: 54%; viability, T/C [13]: 72.4%; viability, T/C [14]: 54.8%; viability, T/C [15]: 64.1%; viability, T/C [16]: 67.5%; viability, T/C [17]: 45.5%; viability, T/C [18]: 50.4%; viability, T/C [19]: 55.7%; viability, T/C [20]: 54.1%; viability, T/C [21]: 47.6%; viability, T/C [22]: 47.8%; viability, T/C [23]: 49.1%; viability, T/C [24]: 53.3%; viability, T/C [25]: 49.2%; viability, T/C [26]: 40.1%; viability, T/C [27]: 46%; viability, T/C [28]: 30.3%; viability, T/C [29]: 63.7%; viability, T/C [30]: 48.6%; viability, T/C [31]: 35.8%; viability, T/C [32]: 55.3%; viability, T/C [33]: 48.5%; viability, T/C [34]: 26.8%; viability, T/C [35]: 47.6%; viability, T/C [36]: 90.8%

**Q.** Which results are given for CC1COCCN1c1cc(C2(O)CC3CCC(C2)O3)c2cnn(-c3ccn[nH]3)c2n1 (centres undefined) + CN(C)c1ccc(Nc2c3ccc(NC(=O)CCN4CCCC4)cc3nc3cc(NC(=O)CCN4CCCC4)ccc23)cc1?
**A.** IC50 (second compound 0.0316 µM): 8.37 µM; IC50 (second compound 0.1 µM): > 10 µM; IC50 (second compound 0.316 µM): > 10 µM; IC50 (second compound 1 µM): 9.4 µM; IC50 (second compound 3.16 µM): > 10 µM; IC50 (second compound 10 µM): > 10 µM; viability, T/C [1]: 84.3%; viability, T/C [2]: 89%; viability, T/C [3]: 87.3%; viability, T/C [4]: 90.2%; viability, T/C [5]: 114%; viability, T/C [6]: 42%; viability, T/C [7]: 77.5%; viability, T/C [8]: 76.9%; viability, T/C [9]: 76.5%; viability, T/C [10]: 73.5%; viability, T/C [11]: 75.2%; viability, T/C [12]: 71.6%; viability, T/C [13]: 106%; viability, T/C [14]: 65.5%; viability, T/C [15]: 98.2%; viability, T/C [16]: 105%; viability, T/C [17]: 113%; viability, T/C [18]: 57%; viability, T/C [19]: 104%; viability, T/C [20]: 75.6%; viability, T/C [21]: 99.8%; viability, T/C [22]: 79.2%; viability, T/C [23]: 88.4%; viability, T/C [24]: 47.8%; viability, T/C [25]: 71.1%; viability, T/C [26]: 66.8%; viability, T/C [27]: 98.3%; viability, T/C [28]: 73.2%; viability, T/C [29]: 74.3%; viability, T/C [30]: 65.3%; viability, T/C [31]: 85%; viability, T/C [32]: 81%; viability, T/C [33]: 59.9%; viability, T/C [34]: 60.7%; viability, T/C [35]: 76.5%; viability, T/C [36]: 43.1%
